From ChEMBL document CHEMBL1671626, “In vitro profiling of ceftaroline against a collection of recent bacterial clinical isolates from across the United States” (2008)
Values after ≈ are worked out from the molar mass of the structure shown.

Columns and labels:
Assay type in all cases: functional
[1] = tested on: Klebsiella pneumoniae; test: Antibacterial activity against ceftazidime-susceptible Klebsiella pneumoniae by CLSI M7-A7 broth microdilution method
[2] = tested on: Escherichia coli; test: Antibacterial activity against ceftazidime-nonsusceptible Escherichia coli assessed as susceptible isolates by CLSI M7-A7 broth microdilution method
[3] = tested on: Klebsiella pneumoniae; test: Antibacterial activity against ceftazidime-susceptible Klebsiella pneumoniae assessed as resistant isolates by CLSI M7-A7 broth microdilution method
[4] = tested on: Morganella morganii; test: Antibacterial activity against ceftazidime-susceptible Morganella morganii by CLSI M7-A7 broth microdilution method
[5] = tested on: Haemophilus influenzae; test: Antibacterial activity against beta lactamase-negative Haemophilus influenzae by CLSI M7-A7 broth microdilution method
[6] = tested on: Citrobacter freundii; test: Antibacterial activity against ceftazidime-nonsusceptible Citrobacter freundii by CLSI M7-A7 broth microdilution method
[7] = tested on: Enterobacteriaceae; test: Antibacterial activity against ceftazidime-susceptible Enterobacteriaceae assessed as susceptible isolates by CLSI M7-A7 broth microdilution method
[8] = tested on: Proteus mirabilis; test: Antibacterial activity against ceftazidime-susceptible Proteus mirabilis assessed as susceptible isolates by CLSI M7-A7 broth microdilution method
[9] = tested on: Citrobacter freundii; test: Antibacterial activity against ceftazidime-susceptible Citrobacter freundii assessed as susceptible isolates by CLSI M7-A7 broth microdilution method
[10] = tested on: Haemophilus influenzae; test: Antibacterial activity against beta lactamase-negative Haemophilus influenzae assessed as resistant isolates by CLSI M7-A7 broth microdilution method
[11] = tested on: Serratia marcescens; test: Antibacterial activity against ceftazidime-susceptible Serratia marcescens assessed as susceptible isolates by CLSI M7-A7 broth microdilution method
[12] = tested on: Escherichia coli; test: Antibacterial activity against ceftazidime-nonsusceptible Escherichia coli assessed as resistant isolates by CLSI M7-A7 broth microdilution method
[13] = tested on: Enterobacter cloacae; test: Antibacterial activity against ceftazidime-nonsusceptible Enterobacter cloacae assessed as susceptible isolates by CLSI M7-A7 broth microdilution method
[14] = tested on: Escherichia coli; test: Antibacterial activity against ceftazidime-susceptible Escherichia coli by CLSI M7-A7 broth microdilution method
[15] = tested on: Klebsiella pneumoniae; test: Antibacterial activity against ceftazidime-nonsusceptible Klebsiella pneumoniae by CLSI M7-A7 broth microdilution method
[16] = tested on: Haemophilus influenzae; test: Antibacterial activity against beta lactamase-positive Haemophilus influenzae assessed as resistant isolates by CLSI M7-A7 broth microdilution method
[17] = tested on: Klebsiella pneumoniae; test: Antibacterial activity against ceftazidime-susceptible Klebsiella pneumoniae assessed as susceptible isolates by CLSI M7-A7 broth microdilution method
[18] = tested on: Acinetobacter; test: Antibacterial activity against imipenem-susceptible Acinetobacter by CLSI M7-A7 broth microdilution method
[19] = tested on: Acinetobacter; test: Antibacterial activity against multidrug-resistant Acinetobacter assessed as resistant isolates by CLSI M7-A7 broth microdilution method
[20] = tested on: Klebsiella pneumoniae; test: Antibacterial activity against ceftazidime-nonsusceptible Klebsiella pneumoniae assessed as resistant isolates by CLSI M7-A7 broth microdilution method
[21] = tested on: Enterobacteriaceae; test: Antibacterial activity against ceftazidime-nonsusceptible Enterobacteriaceae assessed as susceptible isolates by CLSI M7-A7 broth microdilution method
[22] = tested on: Enterobacter cloacae; test: Antibacterial activity against ceftazidime-susceptible Enterobacter cloacae by CLSI M7-A7 broth microdilution method
[23] = tested on: Escherichia coli; test: Antibacterial activity against ceftazidime-nonsusceptible Escherichia coli by CLSI M7-A7 broth microdilution method
[24] = tested on: Morganella morganii; test: Antibacterial activity against ceftazidime-susceptible Morganella morganii assessed as susceptible isolates by CLSI M7-A7 broth microdilution method
[25] = tested on: Proteus mirabilis; test: Antibacterial activity against ceftazidime-susceptible Proteus mirabilis by CLSI M7-A7 broth microdilution method
[26] = tested on: Citrobacter freundii; test: Antibacterial activity against ceftazidime-nonsusceptible Citrobacter freundii assessed as susceptible isolates by CLSI M7-A7 broth microdilution method
[27] = tested on: Enterobacter cloacae; test: Antibacterial activity against ceftazidime-nonsusceptible Enterobacter cloacae assessed as resistant isolates by CLSI M7-A7 broth microdilution method
[28] = tested on: Escherichia coli; test: Antibacterial activity against ceftazidime-susceptible Escherichia coli assessed as resistant isolates by CLSI M7-A7 broth microdilution method
[29] = tested on: Acinetobacter; test: Antibacterial activity against imipenem-susceptible Acinetobacter assessed as susceptible isolates by CLSI M7-A7 broth microdilution method
[30] = tested on: Citrobacter freundii; test: Antibacterial activity against ceftazidime-susceptible Citrobacter freundii by CLSI M7-A7 broth microdilution method
[31] = tested on: Citrobacter freundii; test: Antibacterial activity against ceftazidime-susceptible Citrobacter freundii assessed as resistant isolates by CLSI M7-A7 broth microdilution method
[32] = tested on: Haemophilus influenzae; test: Antibacterial activity against beta lactamase-positive Haemophilus influenzae assessed as susceptible isolates by CLSI M7-A7 broth microdilution method
[33] = tested on: Morganella morganii; test: Antibacterial activity against ceftazidime-susceptible Morganella morganii assessed as resistant isolates by CLSI M7-A7 broth microdilution method
[34] = tested on: Enterobacteriaceae; test: Antibacterial activity against ceftazidime-nonsusceptible Enterobacteriaceae by CLSI M7-A7 broth microdilution method
[35] = tested on: Providencia sp.; test: Antibacterial activity against ceftazidime-susceptible Providencia sp. assessed as resistant isolates by CLSI M7-A7 broth microdilution method
[36] = tested on: Acinetobacter; test: Antibacterial activity against multidrug-resistant Acinetobacter assessed as susceptible isolates by CLSI M7-A7 broth microdilution method
[37] = tested on: Enterobacter cloacae; test: Antibacterial activity against ceftazidime-susceptible Enterobacter cloacae assessed as resistant isolates by CLSI M7-A7 broth microdilution method
[38] = tested on: Serratia marcescens; test: Antibacterial activity against ceftazidime-susceptible Serratia marcescens assessed as resistant isolates by CLSI M7-A7 broth microdilution method
[39] = tested on: Serratia marcescens; test: Antibacterial activity against ceftazidime-susceptible Serratia marcescens by CLSI M7-A7 broth microdilution method
[40] = tested on: Enterobacter cloacae; test: Antibacterial activity against ceftazidime-susceptible Enterobacter cloacae assessed as susceptible isolates by CLSI M7-A7 broth microdilution method
[41] = tested on: Escherichia coli; test: Antibacterial activity against ceftazidime-susceptible Escherichia coli assessed as susceptible isolates by CLSI M7-A7 broth microdilution method
[42] = tested on: Enterobacteriaceae; test: Antibacterial activity against ceftazidime-susceptible Enterobacteriaceae assessed as resistant isolates by CLSI M7-A7 broth microdilution method
[43] = tested on: Haemophilus influenzae; test: Antibacterial activity against beta lactamase-positive Haemophilus influenzae by CLSI M7-A7 broth microdilution method
[44] = tested on: Providencia sp.; test: Antibacterial activity against ceftazidime-susceptible Providencia sp. assessed as susceptible isolates by CLSI M7-A7 broth microdilution method
[45] = tested on: Acinetobacter; test: Antibacterial activity against multidrug-resistant Acinetobacter by CLSI M7-A7 broth microdilution method
[46] = tested on: Providencia sp.; test: Antibacterial activity against ceftazidime-susceptible Providencia sp. by CLSI M7-A7 broth microdilution method
[47] = tested on: Enterobacter cloacae; test: Antibacterial activity against ceftazidime-nonsusceptible Enterobacter cloacae by CLSI M7-A7 broth microdilution method
[48] = tested on: Proteus mirabilis; test: Antibacterial activity against ceftazidime-susceptible Proteus mirabilis assessed as resistant isolates by CLSI M7-A7 broth microdilution method
[49] = tested on: Enterobacteriaceae; test: Antibacterial activity against ceftazidime-nonsusceptible Enterobacteriaceae assessed as resistant isolates by CLSI M7-A7 broth microdilution method
[50] = tested on: Haemophilus influenzae; test: Antibacterial activity against beta lactamase-negative Haemophilus influenzae assessed as susceptible isolates by CLSI M7-A7 broth microdilution method
[51] = tested on: Enterobacteriaceae; test: Antibacterial activity against ceftazidime-susceptible Enterobacteriaceae by CLSI M7-A7 broth microdilution method
[52] = tested on: Klebsiella pneumoniae; test: Antibacterial activity against ceftazidime-nonsusceptible Klebsiella pneumoniae assessed as susceptible isolates by CLSI M7-A7 broth microdilution method
[53] = tested on: Citrobacter freundii; test: Antibacterial activity against ceftazidime-nonsusceptible Citrobacter freundii assessed as resistant isolates by CLSI M7-A7 broth microdilution method
[54] = tested on: Acinetobacter; test: Antibacterial activity against imipenem-susceptible Acinetobacter assessed as resistant isolates by CLSI M7-A7 broth microdilution method

`CCN1CCN(C(=O)N[C@@H](C(=O)N[C@@H]2C(=O)N3[C@@H]2SC(C)(C)[C@@H]3C(=O)O)c2ccccc2)C(=O)C1=O` [PIPERACILLIN] was tested. Which MIC50 [1] did it give?
The MIC50 was 2 µg/mL (≈ 3.86 µM).

What about the MIC90 [1] of the same compound?
The MIC90 was 8 µg/mL (≈ 15.5 µM).

And the Activity [2]?
Its Activity is 68.3%.

What about the Activity [3] of the same compound?
The Activity was 0.5%.

And the MIC [4]?
Its MIC is no more than 0.5 µg/mL.

What about the MIC50 [4] of the same compound?
The MIC50 was no more than 0.5 µg/mL.

And the MIC90 [4]?
Its MIC90 is 1 µg/mL (≈ 1.93 µM).

And the MIC [5]?
Its MIC is no more than 0.03 µg/mL.

And the MIC50 [5]?
Its MIC50 is no more than 0.03 µg/mL.

And the MIC90 [5]?
Its MIC90 is 0.06 µg/mL (≈ 0.116 µM).

And the MIC50 [6]?
Its MIC50 is 32 µg/mL (≈ 61.8 µM).

And the MIC90 [6]?
The MIC90 was greater than 64 µg/mL.

What about the Activity [7] of the same compound?
Its Activity is 97%.

What about the Activity [8] of the same compound?
The Activity was 100%.

And the Activity [9]?
The Activity was 100%.

And the Activity [10]?
Its Activity is 0%.

And the Activity [11]?
Its Activity is 93.2%.

And the Activity [12]?
The Activity was 17.5%.

What about the Activity [13] of the same compound?
The Activity was 25.7%.

What about the MIC50 [14] of the same compound?
Its MIC50 is 1 µg/mL (≈ 1.93 µM).

What about the MIC90 [14] of the same compound?
Its MIC90 is 4 µg/mL (≈ 7.73 µM).

What about the MIC50 [15] of the same compound?
Its MIC50 is greater than 64 µg/mL.

What about the MIC90 [15] of the same compound?
The MIC90 was greater than 64 µg/mL.

What about the Activity [16] of the same compound?
Its Activity is 1%.

And the Activity [17]?
Its Activity is 97.1%.

And the MIC50 [18]?
Its MIC50 is 8 µg/mL (≈ 15.5 µM).

And the MIC90 [18]?
The MIC90 was greater than 64 µg/mL.

And the Activity [19]?
Its Activity is 87.5%.

And the Activity [20]?
Its Activity is 62.1%.

What about the Activity [21] of the same compound?
The Activity was 43.2%.

And the MIC50 [22]?
The MIC50 was 2 µg/mL (≈ 3.86 µM).

And the MIC90 [22]?
The MIC90 was 4 µg/mL (≈ 7.73 µM).

What about the MIC50 [23] of the same compound?
Its MIC50 is 16 µg/mL (≈ 30.9 µM).

What about the MIC90 [23] of the same compound?
The MIC90 was greater than 64 µg/mL.

What about the Activity [24] of the same compound?
The Activity was 100%.

What about the MIC [25] of the same compound?
The MIC was no more than 0.5 µg/mL.

What about the MIC50 [25] of the same compound?
The MIC50 was no more than 0.5 µg/mL.

What about the MIC90 [25] of the same compound?
Its MIC90 is 1 µg/mL (≈ 1.93 µM).

And the Activity [26]?
Its Activity is 24.2%.

And the Activity [27]?
Its Activity is 54.3%.

And the Activity [28]?
The Activity was 2.3%.

And the Activity [29]?
The Activity was 68.1%.

What about the MIC50 [30] of the same compound?
Its MIC50 is 2 µg/mL (≈ 3.86 µM).

And the MIC90 [30]?
The MIC90 was 4 µg/mL (≈ 7.73 µM).

And the Activity [31]?
Its Activity is 0%.

What about the Activity [32] of the same compound?
The Activity was 99%.

And the Activity [33]?
The Activity was 0%.

What about the MIC50 [34] of the same compound?
The MIC50 was 32 µg/mL (≈ 61.8 µM).

And the MIC90 [34]?
The MIC90 was greater than 64 µg/mL.

And the Activity [35]?
The Activity was 3.7%.

And the Activity [36]?
Its Activity is 0%.

What about the Activity [37] of the same compound?
Its Activity is 2%.

What about the Activity [38] of the same compound?
The Activity was 3.4%.

What about the MIC50 [39] of the same compound?
Its MIC50 is 2 µg/mL (≈ 3.86 µM).

And the MIC90 [39]?
Its MIC90 is 16 µg/mL (≈ 30.9 µM).

And the Activity [40]?
The Activity was 98%.

And the Activity [41]?
The Activity was 96.5%.

And the Activity [42]?
The Activity was 1.6%.

What about the MIC [43] of the same compound?
Its MIC is no more than 0.03 µg/mL.

What about the MIC50 [43] of the same compound?
Its MIC50 is no more than 0.03 µg/mL.

What about the MIC90 [43] of the same compound?
The MIC90 was 0.06 µg/mL (≈ 0.116 µM).

And the Activity [44]?
The Activity was 92.6%.

What about the MIC50 [45] of the same compound?
Its MIC50 is greater than 64 µg/mL.

What about the MIC50 [46] of the same compound?
The MIC50 was 2 µg/mL (≈ 3.86 µM).

What about the MIC90 [46] of the same compound?
Its MIC90 is 16 µg/mL (≈ 30.9 µM).

What about the MIC50 [47] of the same compound?
Its MIC50 is greater than 64 µg/mL.

What about the MIC90 [47] of the same compound?
The MIC90 was greater than 64 µg/mL.

And the Activity [48]?
The Activity was 0%.

And the Activity [49]?
The Activity was 38.6%.

What about the Activity [50] of the same compound?
The Activity was 100%.

And the MIC50 [51]?
The MIC50 was 2 µg/mL (≈ 3.86 µM).

And the MIC90 [51]?
The MIC90 was 4 µg/mL (≈ 7.73 µM).

And the Activity [52]?
Its Activity is 24.2%.

What about the Activity [53] of the same compound?
The Activity was 39.4%.

What about the Activity [54] of the same compound?
The Activity was 21.3%.
